Results on one compound are retold here after patent US11370822B2, “Self-assembling peptide for activating human mast cells” (The Governors of the University of Alberta, priority 2017, dated 2022).

The subject of one data set is TPSAB1 (tryptase) mRNA. In words: In vitro activation of mast cells in human skin, ddPCR for TPSAB1 expression. As to conditions: human skin without epidermis (NSE), 4 h; 10 μM PAMP-12, pure (RADA)4 matrix or matrix with 20% w/w (RADA)4-GG-(PAMP-12); NS average taken as 100. The text has this:
Human skin was harvested from abdominoplasty surgical discard specimens obtained following written informed consent as approved by the University of Alberta research ethics board. All tissue was from healthy non-smokers in their 30s. Human skin was separated from the underlying adipose tissue using a 15 blade scalpel. The epidermis was then removed using a […] dermatome (Integra LifeSciences Corporation, Cincinnati, Ohio) set to 0.25 mm thickness. The deepithelialized dermis was then divided into multiple pieces 1 cm^2 using sharp surgical scissors. Control or active hydrogel matrix (100 μl) was then layered onto the exposed surface of the dermis. […] For some groups, PBS and PAMP-12 PBS solution were used as negative and positive control. Following this, tissue pieces were removed and snap frozen in liquid nitrogen and stored at -80° C. until further processing. […] To obtain the absolute quantity of TPSAB1 transcripts, ddPCR (QX100, Bio-Rad, Hercules, Calif.) was employed using 5 ng of each cDNA sample and ddPCR supermix for the specific probes (Bio-Rad) according to manufacturer's protocols. […] QuantaSoft Software (Bio-Rad) was employed to analyze ddPCR results, and the absolute concentration of TPSAB1 transcripts in each sample determined by ddPCR was divided by the ACTB transcripts and presented as percentage based on normal skin samples (NS average taken as 100).

Data set [1] concerns LAD2 cells. In words: β-hex release assay, LAD2 cells on top of hydrogel matrices. The data set is classed as cell-based, human. As to conditions: for degranulation activity (β-hex release): 30 min. The method, then: (§1) (RADA)4 (SEQ ID NO: 1) and (RADA)4-GG-(PAMP-12) (SEQ ID NO:2) stock solutions (1.0% w/v) were prepared by dissolving peptide powder in syringe filtered (0.2 μm) Milli-Q water. Peptide stock solutions were sonicated for 30 min to avoid bulk aggregates and reduce viscosity. (RADA)4 peptide solutions with different proportion of (RADA)4-GG-(PAMP-12) (SEQ ID NO: 2) (0, 2.5, 5, 10, 20, 40, 80, 100% w/w) were mixed with 1x PBS (pH 7.4) at a ratio of 1:1 (v/v) to get hydrogel matrices with peptide concentration of 0.5% w/v. Fifty μl of the mixture was placed at the bottom of a 96-well plate or well insert, overnight at 4° C. and washed with HEPES buffer (10 mM, with 0.4% BSA, pH 7.4) or PBS for 3 times.
LAD2 (Laboratory of Allergic Diseases 2) human mast cells were incubated in StemPro-34 SFM medium (Life Technologies, Rockville, Md.) supplemented with 2 mM L-glutamine, 100 I/ml penicillin, 50 μg/ml streptomycin, 100 ng/ml recombinant human SCF (Peprotech, Rocky Hill, N.J.). Cells were maintained at 0.1×10^6 cells/ml at 37° C. and 5% CO2. Cell suspensions were isolated via centrifugation (200 g, 5 min, at room temperature) and media was replaced every 3-7 days.
To evaluate the effect of the matrices on degranulation, 0.25×10^5 LAD2 cells in 50 μl HEPES buffer (10 mM, with 0.4% BSA, pH 7.4) were carefully placed on the top of 50 μl hydrogel matrices, and the β-hex release was measured as described. After 30 min incubation, cell free supernatant and total cells with the matrices were collected by centrifugation (300 g, 5 min) for analysis.

Data set [2] relates to LAD2 cells. In words: Laser-scanning confocal microscopy of LAD2 cells on hydrogel matrices (adhesion, F-actin). The format is cell-based, human. The settings on record: 0.5% w/v matrix (pure (RADA)4 or 20% w/w (RADA)4-GG-(PAMP-12)). The method, then: For each sample, 0.25×10^5 LAD2 cells in 50 μl culture medium were allowed to incubate with 50 μl hydrogel matrix for 30 min at 37° C. After incubation, the medium was disposed, and hydrogel matrix was carefully washed by warm PBS for 3 times to remove non-adherent cells. Hydrogel matrices were then fixed in 3.7% paraformaldehyde in PBS for 20 min at room temperature and 3 times washed in PBS. Cells were permeabilized with 0.1% Triton X-100 in PBS for 5 min, washed in PBS for 3 times, then followed by 3% BSA blocking for 30 min and 3 times washing in PBS. To stain F-actin, samples were incubated with 0.5 μM Phalloidin-FITC (Sigma-Aldrich, USA) for 30 minutes and followed by 3 times washing in PBS. Cell nuclei were stained with 1 ug/mL DAPI (Sigma-Aldrich, USA) in PBS for 30 min. After 3 times washing in PBS, Z-slice images of the matrix with adhered LAD2 cells were collected using Laser Scanning Confocal Microscopy (LSM710, Carl Zeizz AG, Oberkochen, Germany) with an inverted 10× objective.

A short description of data set [3]: AFM morphology of self-assembling peptide nanofiber matrices. The data set is classed as physicochemical. The method, then: as §1
The morphology of the hydrogel matrices were measured using Dimension 3100 Nanoman Atomic Force Microscopy (AFM, Veeco Metrology, LLC) with tapping mode, tip radius of 8 nm. Matrix solutions used in AFM studies were prepared by 500 times diluted with Mili-Q water. A drop (5 ul) of each solution was placed on freshly cleaved mica substrate then rise with water. The surfaces were air dried overnight at room temperature before being imaged.

The mark [4] stands for this setting: pure (RADA)4-GG-(PAMP-12), 0.5% w/v.

Turning to `CC(=O)N[C@@H](CCCNC(=N)N)C(=O)N[C@@H](C)C(=O)N[C@@H](CC(=O)O)C(=O)N[C@@H](C)C(=O)N[C@@H](CCCNC(=N)N)C(=O)N[C@@H](C)C(=O)N[C@@H](CC(=O)O)C(=O)N[C@@H](C)C(=O)N[C@@H](CCCNC(=N)N)C(=O)N[C@@H](C)C(=O)N[C@@H](CC(=O)O)C(=O)N[C@@H](C)C(=O)N[C@@H](CCCNC(=N)N)C(=O)N[C@@H](C)C(=O)N[C@@H](CC(=O)O)C(=O)N[C@@H](C)C(=O)NCC(=O)NCC(=O)N[C@@H](Cc1ccccc1)C(=O)N[C@@H](CCCNC(=N)N)C(=O)N[C@@H](CCCCN)C(=O)N[C@@H](CCCCN)C(=O)N[C@@H](Cc1c[nH]c2ccccc12)C(=O)N[C@@H](CC(N)=O)C(=O)N[C@@H](CCCCN)C(=O)N[C@@H](Cc1c[nH]c2ccccc12)C(=O)N[C@@H](C)C(=O)N[C@@H](CC(C)C)C(=O)N[C@@H](CO)C(=O)N[C@@H](CCCNC(=N)N)C(N)=O` [(RADA)4-GG-(PAMP-12)], the “TPSAB1 expression level, normalized to ACTB” value in the data set with TPSAB1 (tryptase) mRNA is recorded as 191.1±12.0 percentage. Further, the “degranulation activity (β-hex release)” value amounted to 64.2±3.4% with LAD2 cells [1] (0.5% w/v hydrogel matrix with 20% w/w (RADA)4-GG-(PAMP-12)) and 70.2±7.1% in the data set with LAD2 cells [1] (0.5% w/v hydrogel matrix with 40% w/w (RADA)4-GG-(PAMP-12)). For the same compound, in the data set with LAD2 cells [1] ((RADA)4-GG-(PAMP-12) from 2.5 to 20% w/w in matrix), the “degranulation activity versus proportion in matrix” value is recorded as “increased proportionally”. Moreover, the “F-actin organization / cell morphology of LAD2 cells” value in the data set on LAD2 cells [2] (2D imaging) is “lamellipodia and filopodia were observed”. The “LAD2 cells associated with matrix post-wash” value with LAD2 cells [2] (30 min incubation) was “considerable amount of cells retained after washing”. Moreover, the “nanofiber length (most of the nanofibers)” value was > 500 nm in data set [3] (20% and 40% w/w (RADA)4-GG-(PAMP-12) in (RADA)4, 0.5% w/v); “less than 500 nm” in data set [3] (setting [4]). Besides, the nanoparticle size result in data set [3] (setting [4]) is on record as “less than 200 nm”. In addition, the nanostructure morphology result in data set [3] (pure peptide, 0.5% w/v) was “thick and short nanofibers and even small nanoparticles”. Besides, the “nanofiber height (AFM cross section)” value in data set [3] (pure peptide, 0.5% w/v matrix) is on record as 2.5-3.5 nm.
